Experiments:
[1] = target: T1, catalytic domain of human Bub1 (amino acids 704-1085) (Homo sapiens, UniProt O43683); assay: Bub1 kinase assay (TR-FRET); assay type: biochemical; conditions: 10 μM ATP, 60 min reaction, pH 7.5; read-out: Biological Assay 1: Bub1 kinase assay median IC50
T1 construct: catalytic domain of human Bub1 (amino acids 704-1085); His6 (N); made in house; host or cells: Hi5 insect cells
Description: To this end, 100-fold concentrated compound solutions (in DMSO) were previously prepared by serial dilution (1:3.4) of 2 mM stocks in a clear low volume 384-well source microtiter plate (Greiner Bio-One, Frickenhausen, Germany), from which 50 nL of compounds were transferred into a black low volume test microtiter plate from the same supplier. […] The resulting mixture (5 μL final volume) was incubated at 22° during 60 min., and the reaction was stopped by the addition of 5 μL of an aqueous EDTA-solution (50 mM EDTA, in 100 mM HEPES pH 7.5 and 0.2% (w/v) bovine serum albumin) which also contained the TR-FRET detection reagents (0.2 μM streptavidin-XL665 [Cisbio Bioassays, Codolet, France] and 1 nM anti-phosho-Serine antibody [Merck Millipore, cat. #35-001] and 0.4 nM LANCE EU-W1024 labeled anti-mouse IgG antibody [Perkin-Elmer, product no. AD0077, alternatively a Terbium-cryptate-labeled anti-mouse IgG antibody from Cisbio Bioassays can be used]). The stopped reaction mixture was further incubated 1 h at 22° C. in order to allow the formation of complexes between peptides and detection reagents. Subsequently, the amount of product was evaluated by measurement of the resonance energy transfer from the Eu-chelate-antibody complex recognizing the Phosphoserine residue to the streptavidin-XL665 bound to the biotin moiety of the peptide. […] IC50 values were calculated by fitting the normalized inhibition data to a 4-parameter logistic equation (Minimum, Maximum, IC50, Hill; Y=Max+(Min−Max)/(1+(X/IC50)Hill)).

[2] = system: HeLa human cervical tumor cells; assay: Proliferation assay (HeLa cell line); assay type: cell-based; conditions: 96 h, 4 days incubation, crystal violet, read-out: Biological Assay 2: Proliferation assay (HeLa cell line) median IC50
Description: Human tumour cells were originally obtained from the American Type Culture Collection (ATCC), the Deutsche Sammlung von Mikroorganismen und Zellkulturen (DSMZ, German Collection of Microorganisms and Cell Cultures), or Epo GmbH Berlin. Cultivated HeLa human cervical tumor cells (DSMZ ACC-57) were plated at a density of 3000 cells/well in a 96-well multititer plate in 200 μL of growth medium supplemented 10% fetal calf serum. After 24 hours, the cells of one plate (zero-point plate) were stained with crystal violet (see below), while the medium of the other plates was supplemented with the test substances in various concentrations (0 μM, as well as in the range of 0.001-10 μM; the final concentration of the solvent dimethyl sulfoxide was adjusted to 0.1%) using a Hewlett-Packard HP D300 Digital Dispenser. The cells were incubated for 4 days in the presence of test substances. […] After three washing cycles of the fixed cells with water, the plates were dried at room temperature. The cells were stained by adding 100 μL/measuring point of a 0.1% crystal violet solution (pH 3.0). After three washing cycles of the stained cells with water, the plates were dried at room temperature. The dye was dissolved by adding 100 μL/measuring point of a 10% acetic acid solution. […] The change of cell number, in percent, was calculated by normalization of the measured values to the absorption values of the zero-point plate (=0%) and the absorption of the untreated (0 μm) cells (=100%). The IC50 values were determined by means of a 4 parameter fit.

[3] = system: HeLa human cervical tumor cells; assay: Proliferation Assay (HeLa+Paclitaxel); assay type: cell-based; conditions: 3 nM paclitaxel, test substance 92 hours; read-out: Biological Assay 3: Proliferation Assay (HeLa + Paclitaxel) IC50
Description: Proliferation Assay (HeLa+Paclitaxel):
Cultivated HeLa human cervical tumor cells (DSMZ ACC-57) were plated at a density of 3000 cells/well in a 96-well multititer plate in 200 μL of growth medium supplemented 10% fetal calf serum. After 24 hours, the cells of one plate (zero-point plate) were stained with crystal violet (see below). The medium of the other plates was supplemented with 3 nM of paclitaxel (Sigma-Aldrich) and the cells were incubated at 37° C. After 4 hours the test substances were added in various concentrations (0 μM, as well as in the range of 0.001-10 μM; the final concentration of the solvent dimethyl sulfoxide was adjusted to 0.1%) using a Hewlett-Packard HP D300 Digital Dispenser. The cells were incubated for another 92 hours at 37° C. in the presence of test substances. […] After three washing cycles of the fixed cells with water, the plates were dried at room temperature. The cells were stained by adding 100 μL/measuring point of a 0.1% crystal violet solution (pH 3.0). After three washing cycles of the stained cells with water, the plates were dried at room temperature. The dye was dissolved by adding 100 μL/measuring point of a 10% acetic acid solution. […] The change of cell number, in percent, was calculated by normalization of the measured values to the absorption values of the zero-point plate (=0%) and the 5 absorption of the untreated (0 μm) cells (=100%). The IC50 values were determined by means of a 4 parameter fit.

[4] = system: Bub1 kinase (histone 2A phosphorylation); assay: H2A Formation-Assay (cell-based mechanistic assay, co-treatment with Nocodazole); conditions: 16 h, Nocodazole 1 μg/ml together with test compound for 16 h; read-out: Biological Assay 4.1: H2A Formation IC50
Description: Biological Assay 4.1: Formation-Assay
Cell-Based Mechanistic Assay: Changes of Phosphorylation Status of Histone 2A by Inhibition of Kinase Activity of Bub1
This assay determines the suppression of histone 2A phosphorylation by a Bub1 kinase inhibitor during co-treatment with Nocodazole. 25000 cells (cells were ordered from ATCC) were seeded in 96 well plate for 5 h at 37° C. Cells were treated with Nocodazole (1 μg/ml) and varying concentrations (between 3 nM and 10 μM) of test compounds for 16h. Cells were fixed (20 min, Fixing solution R&D), washed three times with PBS and blocked with Odyssey blocking buffer before incubating with the primary antibody against phosphorylated H2A (5 μg/ml ABIN482721) overnight at […]. After washing, secondary IRDye-labeled antibody mix with cell stains was added for 1h and washed again with PBS. Plates were scanned with LiCor Odyssey Infrared Imager CLx at 800 nm for P-H2A and at 700 nm for cell stains Draq5/Sapphire. The quotient of 800 nm and 700 nm for Nocodazole only treated cells was set as 100% and the quotient of 800 nm and 700 nm of untreated cells was set as 0%. […] The IC50 values were determined by means of a 4 parameter fit.
(§1) Histone H2A is an immediate intracellular substrate of Bub1 kinase. Determination of the phosphorylation status of Histone H2A provides a direct measure of the intracellular activity of Bub1 kinase.

[5] = system: Bub1 kinase (pre-induced phospho-histone 2A); assay: H2A Abrogation-Assay (cell-based mechanistic assay, pre-treatment with Nocodazole); conditions: Nocodazole 1 μg/ml 16 h, then test compound 1 h; read-out: Biological Assay 4.2: H2A Abrogation IC50
Description: Biological Assay 4.2: Abrogation-Assay
Cell-Based Mechanistic Assay: Changes of Phosphorylation Status of Pre-Induced Phospho-Histone 2A by Inhibition of Kinase Activity of Bub1
This assay measures the inhibition of histone 2A phosphorylation, which was induced by pre-treatment of the cells with Nocodazole, by a Bub1 kinase inhibitor. 25000 cells (cells were ordered from ATCC) were seeded in 96 well plate for 5 h at 37° C. Cells were treated with Nocodazole (1 μg/ml). After 16h varying concentrations (between 3 nM and 10 μM) of test compounds were added and the cells were incubated for another 1h. Cells were fixed (20 min, Fixing solution R&D), washed three times with PBS and blocked with Odyssey blocking buffer before incubating with the primary antibody against phosphorylated H2A (5 μg/ml ABIN482721) overnight at 2-8° C. After washing, secondary IRDye-labeled antibody mix with cell stains was added for 1h and washed again with PBS. Plates were scanned with LiCor Odyssey Infrared Imager CLx at 800 nm for P-H2A and at 700 nm for cell stains Draq5/Sapphire. The quotient of 800 nm and 700 nm for Nocodazole only treated cells was set as 100% and the quotient of 800 nm and 700 nm of untreated cells was set as 0%. […] The IC50 values were determined by means of a 4 parameter fit.
as §1

T1 sequence (O43683 704-1085): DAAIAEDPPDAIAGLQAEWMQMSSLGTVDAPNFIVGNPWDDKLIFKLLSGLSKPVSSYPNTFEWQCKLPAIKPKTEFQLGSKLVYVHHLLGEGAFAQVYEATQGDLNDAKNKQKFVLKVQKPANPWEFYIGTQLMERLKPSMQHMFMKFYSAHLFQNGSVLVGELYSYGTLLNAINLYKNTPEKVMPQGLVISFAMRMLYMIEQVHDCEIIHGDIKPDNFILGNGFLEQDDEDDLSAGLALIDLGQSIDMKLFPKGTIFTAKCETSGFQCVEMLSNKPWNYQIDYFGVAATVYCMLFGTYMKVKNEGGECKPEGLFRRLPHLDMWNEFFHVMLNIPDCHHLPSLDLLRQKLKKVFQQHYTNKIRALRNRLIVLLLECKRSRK

SMILES | IC50 [1] | IC50 [2] | IC50 [3] | IC50 [4] | IC50 [5]
COc1cnc(-c2nn(Cc3c(F)cc(OC[C@H](C)CO)cc3F)c3ccccc23)nc1Nc1ccnc(C)n1 [Example 2-3-4, (2R)-3-{3,5-difluoro-4-[(3-{5-methoxy-4-[(2-methylpyrimidin-4-yl)amino]pyrimidin-2-yl}-1H-indazol-1-yl)methyl]phenoxy}-2-methylpropan-1-ol] | 43 nM | > 10000 nM | 150 nM | 2.4 nM | 1.9 nM
COc1cnc(-c2nn(Cc3c(F)cc(OC[C@H](C)CO)cc3F)c3ccccc23)nc1Nc1cc(C)ncc1C [Example 2-3-5, (2R)-3-{4-[(3-{4-[(2,5-dimethylpyridin-4-yl)amino]-5-methoxypyrimidin-2-yl}-1H-indazol-1-yl)methyl]-3,5-difluorophenoxy}-2-methylpropan-1-ol] | 58 nM | 3300 nM | 69 nM | 2 nM | > 1000 nM
COc1cnc(-c2nn(Cc3c(F)cc(OC[C@H](C)CO)cc3F)c3ccccc23)nc1Nc1ccnc(NC(C)=O)c1 [Example 2-3-6, N-[4-({2-[1-(2,6-difluoro-4-{[(2R)-3-hydroxy-2-methylpropyl]oxy}benzyl)-1H-indazol-3-yl]-5-methoxypyrimidin-4-yl}amino)pyridin-2-yl]acetamide] | 19 nM | > 10000 nM | 120 nM | 53 nM | 0.27 nM
COc1cnccc1Nc1nc(-c2nn(Cc3c(F)cc(OC[C@H](C)CO)cc3F)c3ccccc23)ncc1OC [Example 2-3-7, (2R)-3-{3,5-difluoro-4-[(3-{5-methoxy-4-[(3-methoxypyridin-4-yl)amino]pyrimidin-2-yl}-1H-indazol-1-yl)methyl]phenoxy}-2-methylpropan-1-ol] | 28 nM | 6900 nM | 110 nM | 63 nM | 0.31 nM
COc1cnc(-c2nn(Cc3c(F)cc(OCCCO)cc3F)c3ccccc23)nc1Nc1ccnc(C)c1 [Example 2-3-8, 3-{3,5-difluoro-4-[(3-{5-methoxy-4-[(2-methylpyridin-4-yl)amino]pyrimidin-2-yl}-1H-indazol-1-yl)methyl]phenoxy}propan-1-ol] | 17 nM | 2600 nM | 160 nM | > 1000 nM | > 1000 nM
COc1cnc(-c2nn(Cc3c(F)cc(OCCO)cc3F)c3ccccc23)nc1Nc1ccncc1 [Example 6-1-1, 2-[3,5-difluoro-4-({3-[5-methoxy-4-(pyridin-4-ylamino)pyrimidin-2-yl]-1H-indazol-1-yl}methyl)phenoxy]ethanol, reference compound] | 6.2 nM | 3200 nM | 430 nM | 200 nM | 5400 nM
CCOc1cc(F)c(Cn2nc(-c3ncc(OC)c(Nc4ccncc4)n3)c3ccccc32)c(F)c1 [Example 6-4-1, 2-[1-(4-ethoxy-2,6-difluorobenzyl)-1 H-indazol-3-yl]-5-methoxy-N-(pyridin-4-yl)pyrimidin-4-amine, reference compound] | 52 nM | 2400 nM | 660 nM | 74 nM | 920 nM
